The conditions of the data set: 101.33 kPa, Liquid; for speed of sound: Sing-around technique in a fixed-path interferometer; for mass density: Vibrating tube method.

The structures appear in SMILES notation. ± gives the expanded uncertainty stated by the source.

As usually defined, the speed of sound is how fast a sound wave travels through the sample. One may read the mass density as the mass of a sample divided by its volume. As for `CCCCO` [butan-1-ol], the speed of sound came to 1256.2 ± 0.7 m/s (293.15 K), 1239.6 ± 0.7 m/s (298.15 K) and 1223.8 ± 0.7 m/s (303.15 K). The mass density was 809.89 ± 0.12 kg/m3 (293.15 K), 806.47 ± 0.12 kg/m3 (298.15 K) and 802.22 ± 0.12 kg/m3 (303.15 K).

In the case of `CCCCCCCCCCO` [decan-1-ol], the speed of sound is, setting by setting: (293.15 K) 1397.1 ± 1.2 m/s; (298.15 K) 1380.3 ± 1.2 m/s; (303.15 K) 1364.1 ± 1.2 m/s. The mass density is listed as 829.95 ± 0.24 kg/m3 (293.15 K), 826.95 ± 0.24 kg/m3 (298.15 K) and 823.15 ± 0.24 kg/m3 (303.15 K).

As for `CCOCCOCCOCC` [diethylene glycol diethyl ether], the speed of sound is recorded as 1259.4 ± 1.2 m/s (293.15 K), 1239.9 ± 1.2 m/s (298.15 K) and 1221.8 ± 1.2 m/s (303.15 K). Besides, the mass density is, setting by setting: (293.15 K) 906.73 ± 0.23 kg/m3; (298.15 K) 902.88 ± 0.23 kg/m3; (303.15 K) 897.22 ± 0.23 kg/m3.

Take `CO` [methanol]: the speed of sound is on record as 1118 ± 1 m/s (293.15 K), 1101.4 ± 0.6 m/s (298.15 K) and 1086.6 ± 0.6 m/s (303.15 K). Further, the mass density is, setting by setting: (293.15 K) 791.55 ± 0.12 kg/m3; (298.15 K) 787.2 ± 0.12 kg/m3; (303.15 K) 782.44 ± 0.12 kg/m3.

Source of the values: the NIST ThermoML archive (doi:10.1016/j.jct.2012.12.007).
